{"source": "paper PMC12661054", "about": "“The CIP2A-TOPBP1 axis facilitates mitotic DNA repair via MiDAS and MMEJ” (Nature Communications, 2025)", "format_in_all_cases": "cell-based, human", "key": {"RPE1 p53-/- cells": {"test_system": "RPE1 p53-/- cells", "assay": "Immunofluorescence foci, RPE1 p53-/- cells", "conditions": "RPE1 p53-/- cells treated with aphidicolin followed by acute CDK1i", "experimental": "Immunofluorescence microscopy […] For detection of micronuclei, cells were fixed in 250 mM HEPES pH 7.5, 0.1% Triton X-100, 4% PFA in PBS for 20 minutes at 4 °C. Coverslips were then incubated for 5 min in 1x PBS with three buffer changes followed by incubation with 0.5% Triton X-100/ PBS for 10 min at room temperature. Coverslips were then incubated for 5 minutes in 1x PBS with three buffer changes. For EdU detection coverslips were transferred to a humidified chamber and incubated in EdU click it reaction buffer containing Alexafluor 488 azide for 1 h at room temperature followed by three 5 min washes in 1x PBS. Coverslips were then incubated in 5% FBS/PBS for 1 h followed by overnight incubation at 4 °C with primary antibody diluted in 5% FBS/PBS. Coverslips were then washed 3 × 5 min in 1x PBS followed by 1 h incubation at room temperature in 5% FBS/PBS containing secondary antibodies. Coverslips were incubated a further three times for 5 min in 1x PBS. Coverslips were then mounted on superfrost microscopy slides using Vectashield mounting medium with DAPI (Vector laboratories, […]). […] Cells were fixed in […] for 15 min at room temperature, followed by 3 × 5 min washes in 1xPBS. Coverslips were then incubated in 0.5% Triton-X/PBS for 10 min at room temperature, followed by a further 3 × 5 min 1xPBS washes. Coverslips were then incubated in blocking buffer (2% BSA, 0.05% Tween-20) for 1 h at room temperature, followed by incubation in respective primary antibodies overnight at 4 °C. Coverslips were then washed 3x for 5 min in 1x PBS followed by incubation for 1 h at room temperature in blocking buffer containing secondary antibodies. Coverslips were then washed 3x for 5 min in 1x PBS and mounted with Vectashield PLUS antifade mounting medium with DAPI (Vector laboratories, […]). Images were acquired using a Zeiss Axio Observer Z1 MarianasTM Microscope attached with a CSU-SoRa spinning disk unit using either a Photometrics Kinetix sCMOS camera built by Intelligent Imaging Innovations (3i) or a Zeiss Axio Observer Z1 MarianasTM Microscope attached with a CSUX1 spinning disk unit and Hamamatsu Flash 4 CMOS camera built by Intelligent Imaging Innovations (3i) or using an Opera Phenix Plus high content imaging system (Revvity). In each case 405, 488 and 640 laser lines were used in addition to DAPI, GFP/FITC, iRFP/CY5 emission filters. Quantification was carried out using FIJI (ImageJ, RRID:SCR_003070) software, CellProfiler (Broad Institute), Harmony (Revvity) or using […] Microsystems). Images of mitotic cells were analysed in 3D with maximum Z projections used for representative images in the manuscript to assist with visualisation.For interphase cells 2D images were analysed."}, "SLX4 Thr1260": {"test_system": "SLX4 Thr1260", "assay": "SLX4 Thr1260 phosphorylation in mitotic HEK293TN cells (western blot)", "conditions": "acute CDK1i (RO-3306 7 µM, 30 min) after 18 h 100 ng/ml nocodazole; eGFP-SLX4 or eGFP-TOPBP1 Co-IP", "experimental": "(§1) GFP-Trap® Agarose Co-immunoprecipitation\n(§2) HEK293TN cells were seeded to be ~25–30% confluence the next day in a 15 cm tissue culture dish. The following day cells were transfected using Lipofectamine 2000 transfection reagent (Thermo Fisher Scientific) with 24 µg of plasmid DNA encoding eGFP-SLX4 or eGFP-TOPBP1 expression cassettes following manufacturer’s instructions.\n(§3) Forty eight hours post transfection cells were harvested after treatments as described, snap frozen on dry ice and stored at −80 °C. Cell pellets were removed from −80 storage and thawed on ice in 2.4 ml IP buffer 1 (100 mM NaCl, 0.2% Igepal CA-630, 1 mM MgCl2, 10% glycerol, 5 mM NaF, 50 mM Tris-HCl, pH 7.5), supplemented with EDTA Free […] protease inhibitor (Sigma Aldrich) and 25 U ml−1 Benzonase (Novagen). Cells were resuspended and rotated at 4 °C for 90 min. Benzonase was then inhibited by adjusted NaCl concentration to 200 mM and with the addition of 2 mM EDTA, followed by rotation for a further 30 min at 4 °C on a carousel. The cell suspension was then centrifuged at 16,000 x g for 25 min at 4 °C. […] The supernatant, now containing eluted material, was transferred to a new 1.5 ml microcentrifuge tube ready for downstream western blot analysis."}, "[1]": {"test_system": "eGFP-SLX4 interaction with TOPBP1, MUS81, ERCC1", "assay": "eGFP-SLX4 co-immunoprecipitation, mitotic HEK293TN cells", "conditions": "eGFP-SLX4 Co-IP; RO-3306 7 µM, 30 min, nocodazole-synchronised", "experimental": "as §1, §2, §3"}}, "note": "Entries after “also recorded” stand apart in the source; their conditions may differ."}
{"molecule": "O=C1NC(=NCc2cccs2)S/C1=C\\c1ccc2ncccc2c1", "note": "[CDK1i]", "values": [{"measurement": "MUS81 and TOPBP1 foci formation in prometaphase", "setting": "RPE1 p53-/- cells", "result": "impairment of MUS81 and TOPBP1 foci formation in prometaphase cells"}, {"measurement": "SLX4 Thr1260 phosphorylation", "setting": "SLX4 Thr1260", "result": "reduced; also recorded: marked reduction in SLX4 Thr1260 phosphorylation"}, {"measurement": "SLX4 Thr1260 phosphorylation and binding of TOPBP1", "setting": "[1]", "result": "reduced SLX4 phosphorylation of Thr1260 and binding of TOPBP1"}, {"measurement": "eGFP-SLX4 interaction with MUS81 or ERCC1", "setting": "[1]", "result": "did not affect its interaction with MUS81 or ERCC1"}]}
